From patent publication US9101638B2, “Boronic acid derivatives and therapeutic uses thereof” (Rempex Pharmaceuticals, Inc., priority 2013, dated 2015)

Legend:
[1] = test system: KP1005 (CTX-M-14); experiment: Potentiation of aztreonam, strain KP1005; type: cell-based
[2] = test system: ec308 (SHV-5); experiment: Potentiation of aztreonam, strain ec308; type: cell-based; details: minimum BLI concentration inhibiting growth with 4 μg/mL aztreonam
[3] = test system: ec302 (TEM-10); experiment: Potentiation of aztreonam, strain ec302; type: cell-based
[4] = test system: KP1004 (K-2); experiment: Potentiation of aztreonam, strain KP1004; type: cell-based; details: minimum BLI concentration inhibiting growth with 4 μg/mL aztreonam
[5] = test system: ec308 (SHV-5); experiment: Potentiation of tigemonam, strain ec308; type: cell-based; details: minimum BLI concentration inhibiting growth with 4 μg/mL tigemonam
[6] = test system: EC1010 (CMY-6); type: cell-based
[7] = target: SHV-12 (Klebsiella pneumoniae, UniProt P0AD64, E235K/G234S/L31Q); experiment: Inhibition of nitrocefin cleavage by purified SHV-12; type: biochemical; details: nitrocefin reporter substrate, purified enzyme; read-out: Ki (SHV-12, NCF)
Chain of SHV-12 (P0AD64 22-286 L31Q/G234S/E235K): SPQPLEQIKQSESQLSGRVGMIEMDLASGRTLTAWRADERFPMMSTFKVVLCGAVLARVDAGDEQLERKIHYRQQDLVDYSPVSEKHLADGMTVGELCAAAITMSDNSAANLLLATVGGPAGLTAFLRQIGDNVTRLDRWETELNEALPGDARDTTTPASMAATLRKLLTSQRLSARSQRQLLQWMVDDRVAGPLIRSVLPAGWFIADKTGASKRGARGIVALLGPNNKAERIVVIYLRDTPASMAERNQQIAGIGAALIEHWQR
Summary of the method: (§1)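 Readout: nitrocefin hydrolysis, A490 recorded every 10 sec over 10 min. Enzyme and inhibitor (varied concentrations) preincubated 10 min, RT, in reaction buffer before substrate addition.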

[8] = target: KPC-2 (Klebsiella pneumoniae, UniProt Q9F663); experiment: Inhibition of nitrocefin cleavage by purified KPC-2; type: biochemical; details: nitrocefin reporter substrate, purified enzyme; read-out: Ki (KPC-2, NCF)
Chain of KPC-2 (Q9F663 25-293, looked up, species assumed): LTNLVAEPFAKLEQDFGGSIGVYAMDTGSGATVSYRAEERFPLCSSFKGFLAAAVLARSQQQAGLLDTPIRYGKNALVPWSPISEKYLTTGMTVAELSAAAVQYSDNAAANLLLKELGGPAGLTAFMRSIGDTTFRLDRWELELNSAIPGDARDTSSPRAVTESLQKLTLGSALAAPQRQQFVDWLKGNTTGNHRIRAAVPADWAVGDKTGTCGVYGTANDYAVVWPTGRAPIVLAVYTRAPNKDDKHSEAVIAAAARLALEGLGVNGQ
Summary of the method: as §1

[9] = test system: PAM1154/KPC-2; experiment: Biapenem potentiation in PAM1154/KPC-2 (MexAB-OprM lacking); type: cell-based, Pseudomonas aeruginosa
Method: Efflux of BLIs from Pseudomonas aeruginosa by the MexAB-OprM efflux pump was also evaluated. […] Due to expression of KPC-2 both strains became resistant to biapenem. […] Potency of BLIs to potentiate biapenem in these strains was determined. […] The ratio of MPC64 values for each BLI in PAM1032/KPC-2 (efflux proficient) and PAM1154/KPC-2 (efflux deficient) was determined to generate the Efflux Index (EI).

[10] = target: T1, Chymotrypsin (Bos taurus, UniProt P00766); experiment: Serine protease inhibition: chymotrypsin; type: biochemical, mammalian; details: Table 8A, class symbols; read-out: IC50 Chymotrypsin
T1 construct: purchased Calbiochem 230832
Summary of the method: (§2)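 Each diluted enzyme preincubated 10 min at 37° C with compound at various concentrations in its own buffer, then its substrate added and absorbance or fluorescence followed 30 min. Reaction rates expressed relative to untreated control; AEBSF and leupeptin as positive controls.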

[11] = target: T2, Thrombin (Homo sapiens, UniProt P00734); experiment: Serine protease inhibition: thrombin; type: biochemical, mammalian; details: Table 8A, class symbols; read-out: IC50 Thrombin
T2 construct: Thrombin; MPBio; 19491880; purchased MPBio 19491880
Summary of the method: as §2

[12] = target: T3, Elastase (Sus scrofa, UniProt P00772); experiment: Serine protease inhibition: elastase; type: biochemical, mammalian; details: Table 8A, class symbols; read-out: IC50 Elastase
T3 construct: purchased Calbiochem 324682
T3 sequence (P00772 27-266): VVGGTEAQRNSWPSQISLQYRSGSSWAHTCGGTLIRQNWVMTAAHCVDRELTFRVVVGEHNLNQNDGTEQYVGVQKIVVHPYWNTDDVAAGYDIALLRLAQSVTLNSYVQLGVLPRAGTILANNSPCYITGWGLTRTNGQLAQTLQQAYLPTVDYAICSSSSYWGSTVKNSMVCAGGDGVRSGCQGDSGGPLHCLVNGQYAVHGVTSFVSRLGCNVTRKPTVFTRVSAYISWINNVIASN
Method: (§3) The effect of selected BLIs on the enzymatic activity of some common mammalian serine proteases was evaluated.
(§4) 50 μl of the diluted enzyme was mixed with 50 μl of inhibitor at various concentrations and 50 μl of corresponding buffer (Table 7). Reaction mixtures were incubated for 10 min at 37° C. Subsequently, 50 μl of corresponding substrate (Table 7) was added and absorbance or fluorescence was monitored for 30 min on SpectraMax M2 plate reader (Molecular Devices). 4-(2-Aminoethyl)benzenesulfonyl fluoride hydrochloride (AEBSF) and leupeptin were used as positive controls. Rates of reaction were calculated and presented relative to “no treatment” control.

[13] = target: T4, Chymase (Homo sapiens, UniProt P23946); experiment: Serine protease inhibition: chymase; type: biochemical, mammalian; details: Table 8A, class symbols; read-out: IC50 Chymase
T4 construct: purchased Enzo Lifescience BML-SE281
T4 sequence (P23946 22-247): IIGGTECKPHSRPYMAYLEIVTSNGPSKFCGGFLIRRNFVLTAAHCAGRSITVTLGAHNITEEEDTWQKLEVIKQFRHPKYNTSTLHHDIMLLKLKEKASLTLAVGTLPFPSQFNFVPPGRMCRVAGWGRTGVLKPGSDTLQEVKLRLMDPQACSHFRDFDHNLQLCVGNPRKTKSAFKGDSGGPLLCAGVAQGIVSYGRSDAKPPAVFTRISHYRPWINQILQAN
Summary of the method: as §2

[14] = target: T5, CathepsinA (Homo sapiens, UniProt P10619); experiment: Serine protease inhibition: cathepsin A; type: biochemical, mammalian; details: Table 8B; read-out: IC50 CathepsinA
T5 construct: purchased R&D Systems 1049-SE
T5 sequence (P10619 29-480): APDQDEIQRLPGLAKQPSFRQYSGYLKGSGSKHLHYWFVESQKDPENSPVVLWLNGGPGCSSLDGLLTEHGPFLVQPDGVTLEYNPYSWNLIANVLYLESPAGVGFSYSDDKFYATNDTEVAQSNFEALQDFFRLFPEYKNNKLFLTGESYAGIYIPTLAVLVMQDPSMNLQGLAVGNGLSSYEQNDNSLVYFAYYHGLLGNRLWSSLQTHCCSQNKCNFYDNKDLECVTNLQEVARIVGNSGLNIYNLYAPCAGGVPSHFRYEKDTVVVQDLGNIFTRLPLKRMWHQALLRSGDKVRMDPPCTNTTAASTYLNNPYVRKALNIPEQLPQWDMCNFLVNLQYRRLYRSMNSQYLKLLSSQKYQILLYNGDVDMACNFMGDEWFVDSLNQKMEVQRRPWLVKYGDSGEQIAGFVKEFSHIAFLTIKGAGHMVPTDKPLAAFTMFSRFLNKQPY
Summary of the method: as §2

[15] = target: T6, Dipeptidyl peptidase 7 (DPP7) (Homo sapiens, UniProt Q9UHL4); experiment: Serine protease inhibition: DPP7; type: biochemical, mammalian; details: Table 8B; read-out: IC50 DPP7
T6 construct: purchased R&D Systems 3438-SE
Method: as §3, §4

[16] = target: T7, Dipeptidyl peptidase 8 (DPP8) (Homo sapiens, UniProt Q6V1X1); experiment: Serine protease inhibition: DPP8; type: biochemical, mammalian; details: Table 8B; read-out: IC50 DPP8
T7 construct: purchased BPS Bioscience 80080
T7 sequence (Q6V1X1 whole entry): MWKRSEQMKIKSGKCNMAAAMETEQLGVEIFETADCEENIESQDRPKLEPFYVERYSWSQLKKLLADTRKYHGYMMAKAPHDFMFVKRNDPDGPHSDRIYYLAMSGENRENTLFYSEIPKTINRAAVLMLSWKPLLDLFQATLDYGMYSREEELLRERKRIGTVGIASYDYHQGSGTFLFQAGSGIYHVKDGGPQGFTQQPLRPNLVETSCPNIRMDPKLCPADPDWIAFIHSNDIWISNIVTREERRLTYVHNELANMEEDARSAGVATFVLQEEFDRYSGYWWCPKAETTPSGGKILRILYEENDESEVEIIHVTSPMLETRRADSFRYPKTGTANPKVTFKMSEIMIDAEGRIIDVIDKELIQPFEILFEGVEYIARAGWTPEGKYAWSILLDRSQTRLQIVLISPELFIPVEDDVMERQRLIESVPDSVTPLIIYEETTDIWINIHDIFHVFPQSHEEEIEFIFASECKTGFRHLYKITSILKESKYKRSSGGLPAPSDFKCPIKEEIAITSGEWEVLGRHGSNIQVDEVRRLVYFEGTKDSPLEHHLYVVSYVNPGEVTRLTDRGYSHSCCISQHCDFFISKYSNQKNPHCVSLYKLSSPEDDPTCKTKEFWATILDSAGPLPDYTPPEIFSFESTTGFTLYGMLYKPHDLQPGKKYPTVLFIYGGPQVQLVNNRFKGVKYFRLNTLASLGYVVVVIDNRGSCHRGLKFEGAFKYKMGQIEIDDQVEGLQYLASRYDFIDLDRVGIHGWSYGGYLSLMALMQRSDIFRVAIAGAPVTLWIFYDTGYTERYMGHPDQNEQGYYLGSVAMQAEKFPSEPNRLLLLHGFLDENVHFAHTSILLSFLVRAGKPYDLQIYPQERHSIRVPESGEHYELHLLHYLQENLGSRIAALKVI
Summary of the method: as §2

[17] = target: T8, Dipeptidyl peptidase 9 (DPP9) (Homo sapiens, UniProt Q86TI2); experiment: Serine protease inhibition: DPP9; type: biochemical, mammalian; details: Table 8B; read-out: IC50 DPP9
T8 construct: purchased BPS Bioscience 80090
T8 sequence (Q86TI2 whole entry): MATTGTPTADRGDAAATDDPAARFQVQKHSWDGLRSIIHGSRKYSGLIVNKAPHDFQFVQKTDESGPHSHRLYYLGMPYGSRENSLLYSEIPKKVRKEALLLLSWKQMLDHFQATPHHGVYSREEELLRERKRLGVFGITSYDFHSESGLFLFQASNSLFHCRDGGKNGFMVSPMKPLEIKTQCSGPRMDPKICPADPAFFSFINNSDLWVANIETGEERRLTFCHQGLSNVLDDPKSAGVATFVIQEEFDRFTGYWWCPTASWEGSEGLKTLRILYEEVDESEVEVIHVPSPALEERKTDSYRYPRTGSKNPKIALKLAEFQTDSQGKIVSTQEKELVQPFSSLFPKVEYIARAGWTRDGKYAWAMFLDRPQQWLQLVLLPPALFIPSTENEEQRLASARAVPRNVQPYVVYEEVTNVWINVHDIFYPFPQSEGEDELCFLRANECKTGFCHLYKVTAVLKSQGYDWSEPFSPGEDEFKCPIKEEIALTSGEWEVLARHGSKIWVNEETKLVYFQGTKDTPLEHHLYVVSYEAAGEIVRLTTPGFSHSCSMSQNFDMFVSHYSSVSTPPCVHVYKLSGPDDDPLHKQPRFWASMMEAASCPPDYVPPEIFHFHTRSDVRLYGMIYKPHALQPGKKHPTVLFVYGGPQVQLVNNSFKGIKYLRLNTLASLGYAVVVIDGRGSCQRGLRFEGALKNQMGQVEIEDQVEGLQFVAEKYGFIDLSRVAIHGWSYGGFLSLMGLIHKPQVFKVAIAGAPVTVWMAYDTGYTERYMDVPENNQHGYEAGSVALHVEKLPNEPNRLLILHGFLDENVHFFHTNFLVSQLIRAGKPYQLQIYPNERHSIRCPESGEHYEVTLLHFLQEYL
Summary of the method: as §2

[18] = test system: KP1009 (CTX-M-15); experiment: Potentiation of tigemonam, strain KP1009; details: minimum BLI concentration inhibiting growth with 4 μg/mL tigemonam

| Structure (SMILES) | AZT MPC4 CTX-M-14 KP1005 [1] | AZT MPC4 SHV-5 ec308 [2] | AZT MPC4 TEM-10 ec302 [3] | AZT MPC4 K-2 KP1004 [4] | TIG MPC4 SHV-5 ec308 [5] | TIG MPC4 CMY-6 EC1010 [6] | Ki [7] | Ki [8] | PAM1154/KPC-2 Biapenem MPC64 [9] | IC50 [10] | IC50 [11] | IC50 [12] | IC50 [13] | IC50 [14] | IC50 [15] | IC50 [16] | IC50 [17] | TIG MPC4 CTX-M-15 KP1009 [18] |
| --- | --- | --- | --- | --- | --- | --- | --- | --- | --- | --- | --- | --- | --- | --- | --- | --- | --- | --- |
| O=C(CSc1nncs1)N[C@H]1Cc2cccc(C(=O)O)c2OB1O [Compound 7, (R)-3-(2-(1,3,4-thiadiazol-2-ylthio)acetamido)-2-hydroxy-3,4-dihydro-2H-benzo[e][1,2]oxaborinine-8-carboxylic acid] | X (key: X = MIC of less than 1 μg/mL; Y = MIC of 1 μg/mL to 10 μg/mL; Z = MIC of greater than 10 μg/mL) | X (X = MIC of less than 1 μg/mL) | Y (key: X = MIC of less than 1 μg/mL; Y = MIC of 1 μg/mL to 10 μg/mL; Z = MIC of greater than 10 μg/mL) | Y (Y = MIC of 1 μg/mL to 10 μg/mL) | X (X = MIC of less than 1 μg/mL) | X (key: X = MIC of less than 1 μg/mL; Y = MIC of 1 μg/mL to 10 μg/mL; Z = MIC of greater than 10 μg/mL) | < 0.001 µM | > 0.01 µM | X (key: X = Less than 10; Y = 10 to 40; Z Greater than 40) | > 800 µM | > 800 µM | > 800 µM | > 800 µM | 15 to 500 µM | > 500 µM | 15 to 500 µM | > 500 µM | X (X = MIC of less than 1 μg/mL) |
| [N-]=[N+]=NCC(=O)N[C@H]1Cc2cccc(C(=O)O)c2OB1O [Compound 8, (R)-3-(2-azidoacetamido)-2-hydroxy-3,4-dihydro-2H-benzo[e][1,2]oxaborinine-8-carboxylic acid] | X (key: X = MIC of less than 1 μg/mL; Y = MIC of 1 μg/mL to 10 μg/mL; Z = MIC of greater than 10 μg/mL) | X (X = MIC of less than 1 μg/mL) | Y (key: X = MIC of less than 1 μg/mL; Y = MIC of 1 μg/mL to 10 μg/mL; Z = MIC of greater than 10 μg/mL) | X (X = MIC of less than 1 μg/mL) | Y (Y = MIC of 1 μg/mL to 10 μg/mL) | X (key: X = MIC of less than 1 μg/mL; Y = MIC of 1 μg/mL to 10 μg/mL; Z = MIC of greater than 10 μg/mL) | < 0.001 µM | > 0.01 µM | X (key: X = Less than 10; Y = 10 to 40; Z Greater than 40) | > 800 µM | > 800 µM | > 800 µM | > 800 µM | 15 to 500 µM | > 500 µM | > 500 µM | > 500 µM | X (X = MIC of less than 1 μg/mL) |
